Test results from patent US20080255162A1, “Pyrrolyl Substituted Pyrido[2,3-D]Pyrimidin-7-Ones and Derivatives Thereof as Therapeutic Agents” (WARNER-LAMBERT COMPANY LLC, priority 2004, published 2008).
pIC50: −log10 of the molar value.

The compounds below were run against T1, PI3Kγ (purified recombinant p101/p110γ protein) (Homo sapiens, UniProt P48736) (assay: PI3Kγ In Vitro Kinase Assay). Details: final ATP 20 μM, 25 μM PIP2, G protein β1/γ2 subunits, 20 minutes at room temperature.
T1 construct: HA; made in house; host or cells: Spodoptera frugiperda Sf9 cells (baculovirus co-infection)
T1 sequence (P48736 whole entry, species assumed): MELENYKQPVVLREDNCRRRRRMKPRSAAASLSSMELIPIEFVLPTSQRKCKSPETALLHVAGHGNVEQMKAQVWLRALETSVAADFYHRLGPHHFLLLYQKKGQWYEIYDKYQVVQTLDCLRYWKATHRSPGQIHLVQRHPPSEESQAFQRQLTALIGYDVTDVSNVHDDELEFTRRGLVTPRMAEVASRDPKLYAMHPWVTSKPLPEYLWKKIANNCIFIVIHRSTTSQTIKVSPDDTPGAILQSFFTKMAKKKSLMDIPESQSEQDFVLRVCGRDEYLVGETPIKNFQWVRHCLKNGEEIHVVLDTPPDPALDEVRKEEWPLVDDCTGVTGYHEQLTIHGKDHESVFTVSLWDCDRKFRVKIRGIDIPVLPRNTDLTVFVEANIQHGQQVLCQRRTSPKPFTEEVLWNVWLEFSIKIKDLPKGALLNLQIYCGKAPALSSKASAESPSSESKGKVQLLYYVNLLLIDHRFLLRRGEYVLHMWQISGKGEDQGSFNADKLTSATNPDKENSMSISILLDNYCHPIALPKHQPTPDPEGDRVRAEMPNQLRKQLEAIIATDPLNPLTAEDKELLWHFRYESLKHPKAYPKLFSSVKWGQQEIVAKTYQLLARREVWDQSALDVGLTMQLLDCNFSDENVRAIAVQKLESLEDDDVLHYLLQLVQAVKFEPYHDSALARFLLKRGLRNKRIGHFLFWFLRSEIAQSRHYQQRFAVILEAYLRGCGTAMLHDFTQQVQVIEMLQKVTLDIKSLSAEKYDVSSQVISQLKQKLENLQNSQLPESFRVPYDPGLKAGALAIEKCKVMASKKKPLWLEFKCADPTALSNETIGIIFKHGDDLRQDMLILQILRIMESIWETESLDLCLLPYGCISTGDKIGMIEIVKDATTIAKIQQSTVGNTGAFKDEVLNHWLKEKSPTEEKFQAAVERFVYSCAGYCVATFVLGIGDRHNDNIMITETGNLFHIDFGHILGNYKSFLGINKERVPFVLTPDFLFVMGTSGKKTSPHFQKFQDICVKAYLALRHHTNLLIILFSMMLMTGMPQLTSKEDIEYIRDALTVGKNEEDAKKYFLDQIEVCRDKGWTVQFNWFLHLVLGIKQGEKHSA
T1 sequence (Q8WYR1 whole entry partner, species assumed): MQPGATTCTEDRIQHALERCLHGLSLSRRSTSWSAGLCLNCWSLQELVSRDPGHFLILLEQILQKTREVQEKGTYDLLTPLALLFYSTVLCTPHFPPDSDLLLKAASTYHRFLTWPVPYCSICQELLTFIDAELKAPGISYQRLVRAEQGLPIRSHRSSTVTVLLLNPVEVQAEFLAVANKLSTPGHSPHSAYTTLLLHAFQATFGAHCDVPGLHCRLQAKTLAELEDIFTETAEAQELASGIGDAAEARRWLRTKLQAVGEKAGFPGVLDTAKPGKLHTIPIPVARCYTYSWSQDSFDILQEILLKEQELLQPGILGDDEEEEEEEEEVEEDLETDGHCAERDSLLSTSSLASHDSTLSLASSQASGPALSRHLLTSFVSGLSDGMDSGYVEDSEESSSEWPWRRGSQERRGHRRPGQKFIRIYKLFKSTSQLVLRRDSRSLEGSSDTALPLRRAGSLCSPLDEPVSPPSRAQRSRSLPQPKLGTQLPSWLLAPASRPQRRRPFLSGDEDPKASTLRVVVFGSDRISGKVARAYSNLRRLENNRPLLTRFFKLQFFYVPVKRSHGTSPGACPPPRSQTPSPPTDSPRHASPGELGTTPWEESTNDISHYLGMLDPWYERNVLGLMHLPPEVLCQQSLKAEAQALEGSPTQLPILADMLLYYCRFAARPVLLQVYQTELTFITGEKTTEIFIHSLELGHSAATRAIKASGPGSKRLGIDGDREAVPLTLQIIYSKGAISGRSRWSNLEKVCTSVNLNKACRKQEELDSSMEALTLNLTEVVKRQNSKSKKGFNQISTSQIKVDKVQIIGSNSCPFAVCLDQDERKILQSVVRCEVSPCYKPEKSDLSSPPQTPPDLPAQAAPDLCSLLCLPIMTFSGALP
Format: biochemical
Experimental: Spodtera frugiperda cells, grown in ESF921 media, were co-infected with baculovirus expressing a glu-tagged p101 and baculovirus expressing an HA-tagged p110γ, at a 3:1 ratio of p101 baculovirus to p110γ baculovirus. Sf9 cells were grown to 1×10^7 total cells/mL in 10 L bioreactors and harvested 48-72 hours post infection. Samples of infected cells were then tested for expression of p101/p110γ PI3 kinase by immunoprecipitation and Western Blot analysis methods (see below).
To purify PI3Kγ, 4 volumes of room temperature hypotonic lysis buffer (1 mM MgCl2, 1 mM DTT, 5 mM EGTA, 1 mM Pefabloc, 0.5 μM aprotinin, 5 μM leupeptin, 2 μM pepstatin, 5 μM E64, pH 8) per gram of cell paste, was poured onto frozen cell pellets with stirring, then lysed in a nitrogen “bomb” at 400 psi (599HC T316, Parr Instrument Co, Moline, Ill.). NaCl was added to 150 mM, and sodium cholate was added to 1% and mixed for another 45 minutes. The lysates were clarified by centrifugation for 25 minutes at 14,000 rpm. The lysates were then loaded over anti-glu-linked Protein-G Sepaharose beads (Covance Research Products, Richmond, Calif.) using 20 mL resin/50 g cell paste. The column was washed with 15 volumes of wash buffer (1 mM DTT, 0.2 mM EGTA, 1 mM Pefabloc, 0.5 μM aprotinin, 5 μM leupeptin, 2 μM pepstatin, 5 μM E64, 150 mM NaCl, 1% sodium cholate, pH 8). PI3Kγ was eluted with 6 column volumes of wash buffer that contain 100 μg/mL of a peptide that competes for binding of the glu tag. The column fractions with the eluted protein (determined by taking OD280 readings) were collected and dialyzed in 0.2 mM EGTA, 1 mM DTT, 1 mM Pefabloc, 5 μM leupeptin, 0.5% sodium cholate, 150 mM NaCl, and 50% glycerol, pH 8. The fractions were stored at −80° C. until further use.
Spodtera frugiperda cells were coinfected with baculovirus expressing a glu-tagged G protein β1 and baculovirus expressing a G protein β2, at a 1:1 ratio of glu-tagged G protein β1 baculovirus to G protein β2 baculovirus. Sf9 cells are grown in 10 L bioreactors and harvested 48-72 hours post infection. Samples of infected cells were tested for G protein β1/β2 expression by Western Blot analysis, as described below. Cell lysates were homogenized and loaded onto a column of glu-tagged beads as in Biological Example 1 and competed off the column with a glu peptide and processed as described in Biological Example 1.
The inhibitory properties of the compounds in Table 1 were assayed in an in vitro PI3K assay. In a 96-well polypropylene plate, each well was spotted with 2 μL of 50 times the desired final concentration of compound in DMSO. Purified recombinant p101/p110γ protein (0.03 μg; ˜2.7 nM) and G protein β1/γ2 subunits (0.09 μg; ˜57.7 nM) for each reaction was combined in the assay buffer (30 mM HEPES, 100 mM NaCl, 1 mM EGTA, and 1 mM DTT). ATP and [γ-^32P-ATP] (0.09 μCi) were added to this mixture so that the final ATP concentration in the reaction was 20 μM. Lipid micelles were formed by sonicating phosphatidylinositol-4,5-diphosphate (PIP2), phosphatidylethanolamine (PE), and Na-cholate in the assay buffer for 10 minutes, adding MgCl2 and incubating on ice for 20 minutes, for final concentrations of 25 μM PIP2, 300 μM PE, 0.02% Na-cholate, and 10 mM MgCl2 in the reaction. The reactions were started by adding equal volumes lipid and enzyme mixture in a total volume of 50 μL, allowed to run for 20 minutes at room temperature, and stopped with 100 μL 75 mM H3PO4. The lipid product was transferred to a glass fiber filter plate and washed with 75 mM H3PO4 several times. The presence of radioactive lipid product (PIP3) was measured by adding Wallac Optiphase mix to each well and counting in a Wallac 1450 Trilux plate reader (PerkinElmer Life Sciences Inc., Boston, Mass. 02118). The IC50 for each compound tested is reported in μM in the Table 2: […]

| pIC50 | Compound |
| --- | --- |
| 7.60 | COC(=O)c1cc(Nc2nc(C)c3ccc(=O)n(C4CCCCCC4)c3n2)cn1C [Example 1, 4-(8-Cycloheptyl-4-methyl-7-oxo-7,8-dihydro-pyrido[2,3-d]pyrimidin-2-ylamino)-1-methyl-1H-pyrrole-2-carboxylic acid methyl ester] |
| 7.20 | CCOC(=O)c1cc(Nc2nc(C)c3ccc(=O)n(C)c3n2)cn1C(C)c1ccccc1 (centres unmarked) [Example 2, 4-(4,8-Dimethyl-7-oxo-7,8-dihydro-pyrido[2,3-d]pyrimidin-2-ylamino)-1-(1-phenyl-ethyl)-1H-pyrrole-2-carboxylic acid ethyl ester] |
| 7.74 | COC(=O)c1cc(Nc2nc(C)c3ccc(=O)n(C4CC4)c3n2)cn1C [Example 3, 4-(8-Cyclopropyl-4-methyl-7-oxo-7,8-dihydro-pyrido[2,3-d]pyrimidin-2-ylamino)-1-methyl-1H-pyrrole-2-carboxylic acid methyl ester] |
| 7.89 | COC(=O)c1cc(Nc2nc(C)c3ccc(=O)n(C4CCC4)c3n2)cn1C [Example 4, 4-(8-Cyclobutyl-4-methyl-7-oxo-7,8-dihydro-pyrido[2,3-d]pyrimidin-2-ylamino)-1-methyl-1H-pyrrole-2-carboxylic acid methyl ester] |
| 7.62 | COC(=O)c1cc(Nc2nc(C)c3ccc(=O)n(C4CCOCC4)c3n2)cn1C [Example 5, 1-Methyl-4-[4-methyl-7-oxo-8-(tetrahydro-pyran-4-yl)-7,8-dihydro-pyrido[2,3-d]pyrimidin-2-ylamino]-1H-pyrrole-2-carboxylic acid methyl ester] |
| 8.40 | COC(=O)c1cc(Nc2nc(C)c3ccc(=O)n(C4CCCCC4)c3n2)cn1C [Example 6, 4-(8-Cyclohexyl-4-methyl-7-oxo-7,8-dihydro-pyrido[2,3-d]pyrimidin-2-ylamino)-1-methyl-1H-pyrrole-2-carboxylic acid methyl ester] |
| 7.44 | CCOC(=O)c1cc(Nc2nc(C)c3ccc(=O)n(C4CCCCCC4)c3n2)cn1Cc1ccccc1 [Example 7, 1-Benzyl-4-(8-cycloheptyl-4-methyl-7-oxo-7,8-dihydro-pyrido[2,3-d]pyrimidin-2-ylamino)-1H-pyrrole-2-carboxylic acid ethyl ester] |
| 7.92 | COC(=O)c1cc(Nc2nc(C)c3ccc(=O)n(CCC4CC4)c3n2)cn1C [Example 8, 4-[8-(2-Cyclopropyl-ethyl)-4-methyl-7-oxo-7,8-dihydro-pyrido[2,3-d]pyrimidin-2-ylamino]-1-methyl-1H-pyrrole-2-carboxylic acid methyl ester] |
| 7.92 | COC(=O)c1cc(Nc2nc(C)c3cc(F)c(=O)n(C4CCCC4)c3n2)cn1C [Example 9, 4-(8-Cyclopentyl-6-fluoro-4-methyl-7-oxo-7,8-dihydro-pyrido[2,3-d]pyrimidin-2-ylamino)-1-methyl-1H-pyrrole-2-carboxylic acid methyl ester] |
| 8.10 | COC(=O)c1cc(Nc2nc(C)c3cc(F)c(=O)n(CC4CCOCC4)c3n2)cn1C [Example 10, 4-[6-Fluoro-4-methyl-7-oxo-8-(tetrahydro-pyran-4-ylmethyl)-7,8-dihydro-pyrido[2,3-d]pyrimidin-2-ylamino]-1-methyl-1H-pyrrole-2-carboxylic acid methyl ester] |
| 8.30 | COC(=O)c1cc(Nc2nc(C)c3cc(F)c(=O)n(C4CCC(OC)CC4)c3n2)cn1C (centres unmarked) [Example 11, 4-[6-Fluoro-8-(4-methoxy-cyclohexyl)-4-methyl-7-oxo-7,8-dihydro-pyrido[2,3-d]pyrimidin-2-ylamino]-1-methyl-1H-pyrrole-2-carboxylic acid methyl ester] |
| 8.40 | CCOC(=O)c1cc(Nc2nc(C)c3cc(F)c(=O)n(C4CCCC4)c3n2)cn1Cc1cccnc1 [Example 12, 4-(8-Cyclopentyl-6-fluoro-4-methyl-7-oxo-7,8-dihydro-pyrido[2,3-d]pyrimidin-2-ylamino)-1-pyridin-3-ylmethyl-1H-pyrrole-2-carboxylic acid ethyl ester] |
| 6.80 | CCOC(=O)c1cc(Nc2nc(C)c3cc(F)c(=O)n(C4CCCC4)c3n2)cn1C(C)c1ccccc1 (centres unmarked) [Example 13, 4-(8-Cyclopentyl-6-fluoro-4-methyl-7-oxo-7,8-dihydro-pyrido[2,3-d]pyrimidin-2-ylamino)-1-(1-phenyl-ethyl)-1H-pyrrole-2-carboxylic acid ethyl ester] |
| 5.84 | CCc1nc(Nc2cc(C(=O)OC)n(C)c2)nc2c1ccc(=O)n2C1CCCCCC1 [Example 14, 4-(8-Cycloheptyl-4-ethyl-7-oxo-7,8-dihydro-pyrido[2,3-d]pyrimidin-2-ylamino)-1-methyl-1H-pyrrole-2-carboxylic acid methyl ester] |
| 7.48 | Cc1nc(Nc2cc(C(=O)O)n(C)c2)nc2c1ccc(=O)n2C1CCCCCC1 [Example 15, 4-(8-Cycloheptyl-4-methyl-7-oxo-7,8-dihydro-pyrido[2,3-d]pyrimidin-2-ylamino)-1-methyl-1H-pyrrole-2-carboxylic acid] |
| 6.83 | Cc1nc(Nc2cc(C(=O)O)n(C(C)c3ccccc3)c2)nc2c1ccc(=O)n2C (centres unmarked) [Example 16, 4-(4,8-Dimethyl-7-oxo-7,8-dihydro-pyrido[2,3-d]pyrimidin-2-ylamino)-1-(1-phenyl-ethyl)-1H-pyrrole-2-carboxylic acid] |
| 6.73 | Cc1nc(Nc2cc(C(=O)O)n(C)c2)nc2c1ccc(=O)n2C1CC1 [Example 18, 4-(8-Cyclopropyl-4-methyl-7-oxo-7,8-dihydro-pyrido[2,3-d]pyrimidin-2-ylamino)-1-methyl-1H-pyrrole-2-carboxylic acid] |
| 5.80 | CCc1nc(Nc2cc(C(=O)O)n(C)c2)nc2c1ccc(=O)n2C1CCCCCC1 [Example 20, 4-(8-Cycloheptyl-4-ethyl-7-oxo-7,8-dihydro-pyrido[2,3-d]pyrimidin-2-ylamino)-1-methyl-1H-pyrrole-2-carboxylic acid] |
| 7.26 | Cc1nc(Nc2cc(C(=O)O)n(C)c2)nc2c1ccc(=O)n2C1CCC1 [Example 21, 4-(8-Cyclobutyl-4-methyl-7-oxo-7,8-dihydro-pyrido[2,3-d]pyrimidin-2-ylamino)-1-methyl-1H-pyrrole-2-carboxylic acid] |
| 7.46 | Cc1nc(Nc2cc(C(=O)O)n(C(C)C)c2)nc2c1ccc(=O)n2C1CCCCCC1 [Example 22, 4-(8-Cycloheptyl-4-methyl-7-oxo-7,8-dihydro-pyrido[2,3-d]pyrimidin-2-ylamino)-1-isopropyl-1H-pyrrole-2-carboxylic acid] |
| 5.96 | Cc1nc(Nc2ccn(CC(=O)O)c2)nc2c1ccc(=O)n2C1CCCCCC1 [Example 23, [3-(8-Cycloheptyl-4-methyl-7-oxo-7,8-dihydro-pyrido[2,3-d]pyrimidin-2-ylamino)-pyrrol-1-yl]-acetic acid] |
| 7.40 | Cc1nc(Nc2cc(C(=O)O)n(C)c2)nc2c1cc(F)c(=O)n2C1CCOCC1 [Example 25, 4-[6-Fluoro-4-methyl-7-oxo-8-(tetrahydro-pyran-4-yl)-7,8-dihydro-pyrido[2,3-d]pyrimidin-2-ylamino]-1-methyl-1H-pyrrole-2-carboxylic acid] |
| 7.60 | Cc1nc(Nc2cc(C(=O)O)n(C)c2)nc2c1cc(F)c(=O)n2CC1CCOCC1 [Example 26, 4-[6-Fluoro-4-methyl-7-oxo-8-(tetrahydro-pyran-4-ylmethyl)-7,8-dihydro-pyrido[2,3-d]pyrimidin-2-ylamino]-1-methyl-1H-pyrrole-2-carboxylic acid] |
